Several values for one entry are separate records, joined by “and”; a condition that tells them apart may be missing. Equal values may be shown once.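 In this assay, cells in 96-well plates receive the compound at five concentrations for 48 hours. Endpoints are linearly interpolated between the surrounding concentrations. At the GI50, growth is halved. TGI: total growth inhibition.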 Where only a bound is given, the exact number is not on record here.

This note sets out measurements from PubChem BioAssay (NCI).

This assay has as its system MDA-MB-468 breast. The assay is described as follows: NCI-60 cell line screen, 48 h.
As for `C/C=C/C1=CN2C(=O)c3cc(OC4OC(C)C(NC)C(C)(O)C4O)c(C)cc3N=C[C@@H]2C1` (some centres undefined), the GI50 was 0.0107 µM and the TGI is 0.0282 µM.

Turning to `CCCC(=O)OCC1OC(n2cnc3c(=S)nc(N)[nH]c32)C(OC(=O)CCC)C1OC(=O)CCC` (centres undefined), the GI50 is 0.332 µM and the TGI was determined as 2.67 µM.

Regarding `COc1ccc2c(c1)O/C(=C\c1ncc([N+](=O)[O-])n1C)C2=O`, the GI50 was 1.33 µM and the TGI worked out at 3.72 µM. On the same counts, the results for `CN1CCN(Cc2ccc(NC(=O)c3cncc(C#Cc4cnc5ccc(O[C@H]6CCOC6)nn45)c3)cc2C(F)(F)F)CC1` are 0.75 µM and 1.69 µM. Taken in the same sequence, the figures for `O=C(Nc1ccc(F)cc1F)c1cc(F)ccc1O` were 2.6 µM and 7.88 µM. `O=S(=O)(Nc1ccc(Cl)c(F)c1)c1ccc(-c2cnc(C3CC3)o2)cc1`: the GI50 is 0.187 µM and the TGI stood at 0.998 µM. On the same counts, the results for `Nc1ccccc1NC(=O)c1ccc(CNC(=O)OCc2cccnc2)cc1` are 0.412 µM and 2.05 µM. On the same counts, the results for `COC(=O)c1c(C)c2n(c1C)C(=O)C(c1ccccc1)=C2` are 4.88 µM and greater than 72.8 µM.

Turning to `CC(C)C[C@@H](NC(=O)[C@@H](Cc1ccccc1)NC(=O)c1cnccn1)B1Oc2ccc(C[C@H](NC(=O)[C@H](Cc3ccc4c(c3)OB([C@@H](CC(C)C)NC(=O)[C@@H](Cc3ccccc3)NC(=O)c3cnccn3)O4)NC(=O)[C@@H](N)CC3CCC4OB([C@@H](CC(C)C)NC(=O)[C@@H](CC5CCCCC5)NC(=O)C5CNCCN5)OC4C3)C(=O)NCCCC[C@@H]3NC(=O)[C@@H](Cc4ccccc4)NC(=O)[C@H](CC(=O)O)NC(=O)CNC(=O)[C@H](CCCNC(=N)N)NC3=O)cc2O1` (some centres undefined), the GI50 was 0.00272 µM and < 0.0025 µM; the TGI was 0.00722 µM and < 0.0025 µM. As to `COc1ccc(OC)c(/C=C/C(=O)N/N=C/c2ccccc2)c1`, the GI50 is 1.96 µM and the TGI is 6.47 µM.

On to `NC(=O)c1c(Br)n(C2OC(CO)C(O)C2O)c2ncnc(N)c12` (centres undefined), for which the GI50 was 0.437 µM and the TGI was 2.36 µM. Consider `COc1ccc(C2=C(c3cn(C)c4ccccc34)C(=O)OC2)cc1OC`, for which the GI50 was 1.65 µM and the TGI was greater than 100 µM. On the same counts, the results for `CN1C[C@@H](c2ccc(Cl)cc2)[C@]2(NC(=S)N(c3ccc(F)c(Cl)c3)C2=O)[C@@]12C(=O)NC1C=CC(Cl)=C[C@H]12` (some centres undefined) are 3.38 µM and 12.9 µM. Turning to `O=C1CCc2c(Oc3ccc4c(c3)[C@H]3[C@@H](O4)[C@@H]3c3nc4ccc(C(F)(F)F)cc4[nH]3)ccnc2N1`, the GI50 was 1.74 µM and the TGI was 7.13 µM. For `COc1ccc(C(=O)c2cc(OC)c(OC)c(OC)c2)cc1OC(=O)C(Cl)(Cl)Cl`, the GI50 was 0.542 µM. Take `COc1cc(-c2nn(-c3ccc(NC(=O)NCCNS(=O)(=O)c4ccc(F)cc4)cc3)cc2-c2ccncc2)ccc1Cl`: the GI50 was 0.323 µM and the TGI is 1.28 µM. Take `COc1cccc(/C=C2\COc3ccc(O)c(O)c3C2=O)c1`: the GI50 is 1.15 µM and the TGI was found to be 3.15 µM. On the same counts, the results for `Cc1ccc2cc3c(cc(C)c4ccccc43)c3c2c1CC3` are greater than 100 µM and greater than 100 µM. As to `CC(C)N(Cc1c(F)cccc1F)c1ccc(CO)c(Cl)c1`, the GI50 was 0.0187 µM and the TGI worked out at 0.0531 µM. As for `O=c1nc(Nc2ccc([N+](=O)[O-])cc2O)sc2ccccc12`, the GI50 is 0.34 µM and the TGI was determined as 1.21 µM. With `N#C/C(=C1C=C/C(=N/O)C(Cl)=C/1)c1ccc(Cl)cc1`, the GI50 is 3 µM and the TGI was 9.7 µM. Taken in the same sequence, the figures for `O=C1CCC/C=C\C[C@H]2C=CC(=O)/C2=C/C[C@H](CCc2cccc(C(F)(F)F)c2)O1` were 1.69 µM and 3.71 µM. Taken in the same sequence, the figures for `O=C(NC1CCCCC1)OCc1c(COC(=O)NC2CCCCC2)c(-c2ccc(Cl)c(Cl)c2)n2c1CCC2` were 1.8 µM and 10.9 µM. Taken in the same sequence, the figures for `CCN(Cc1ccccn1)c1ccc(CO)c(Cl)c1` were 0.127 µM and 0.331 µM. As for `Cc1ccc(-c2nc3nc(-c4ccc(Br)cc4)nc(N4CCCNCC4)c3o2)cc1`, the GI50 is 3.98 µM and the TGI came out at 15.9 µM. Consider `COc1cc2c(cc1O)CC[C@@H]1[C@@H]2CC[C@]2(C)[C@@H](OCCCN(C)C)CC[C@@H]12`, for which the GI50 is 0.12 µM and the TGI was found to be 0.3 µM.

On to `CCn1nc(-c2ccc(C(=O)OC)cc2)nc2c(=O)n(C)c(=O)nc1-2`, for which the GI50 was 0.189 µM and the TGI came to 0.477 µM. On the same counts, the results for `C#C[C@@]1(O)[C@@H](CO)O[C@@H](n2cc(Br)c3c(N)ncnc32)[C@@H]1O` are 0.115 µM and 0.352 µM.

As for `ClC(Cl)c1nc(-c2ccccc2)n2nc(-c3ccccc3)cc2n1`, the GI50 was 0.287 µM and the TGI stood at 1.25 µM. On the same counts, the results for `C=CC(C)c1cccc(C=O)c1O` (centres undefined) are 51.6 µM and greater than 100 µM.
